Test results reported in US10603319B2, “Pyrimidine derivatives and their use in treating or preventing a respiratory syncytial virus infection” (REVIRAL LIMITED, priority 2016, dated 2020).
Like-named read-outs stand apart in the source and are kept apart here.

Experiments:
Assay type in all cases: cell-based
[1] = tested on: RSV A2 VR-1540; assay: Plaque Reduction Assay 2 (HEp-2 cells, virospot count); details: human respiratory syncytial virus, 24 h; RSV A2, HEp-2 cells, 1 day
Text: Plaque Reduction Assay 2:
This RSV plaque reduction assay is an infectivity assay which allows quantification of the number of infectious units in a distinct foci of RSV infection. This is indicated by zones of viral antigen detected by specific antibody staining within a monolayer of otherwise healthy tissue culture cells. As each plaque originates from a single infectious virus particle an accurate calculation of the anti-viral effect can be obtained by counting plaques in the presence and absence of an anti-viral compound. HEp-2 cells (ATCC, CCL23) were passaged in flasks and seeded in 96-well plates in DMEM containing antibiotics and supplemented with 10% FBS. During inoculation and subsequent incubation, cells were cultured in DMEM containing 3% FBS. 100 plaque forming unit (PFU)/well of RSV (RSV A2 VR-1540) was mixed with ten serial dilutions of compound. Subsequently, 100 μL of the virus/compound mixtures was added to confluent HEp-2 cell monolayers. The cells and virus/compound mixtures were incubated at 35° C. in a humidified 5% CO2 incubator for 1 day.
Cells were washed twice with PBS before adding 50% v/v EtOH/MeOH, and then stored at −20° C. On the day of the staining, fixative was first removed from the plates. Plates were washed 3× with PBS. A pre-titrated amount of the primary antibody was added in 60 μL PBS/2% milk powder, and plates incubated for 1 h at rt. The plates were washed 3× with PBS/0.05% Tween20 before addition of goat anti-mouse horse radish peroxidase in 60 μL PBS/2% milk powder, and incubated for 1 h at rt. Following three wash steps with PBS/0.05% Tween20, 60 μL ready-to-use TrueBlue was added and plates were incubated at rt for 10-15 min before adding MilliQ water. Plates were washed once with water, incubated for 30-60 min and after removal of water, air-dried in the dark.
Plates were scanned and analyzed using the Immunospot S6 UV analyzer, which is equipped with BioSpot analysis software for counting immunostained plaques (virospots). Plaque counts were used to calculate % infection relative to the mean of the spot count (SC) in the virus control wells for RSV. IC50/IC90 values were calculated as 50% or 90% reduction in signal, respectively, by interpolation of inhibition curves fitted with a 4-parameter nonlinear regression with a variable slope in GraphPad 5.0 (Prism).

[2] = target: T1, RSV A2_F (Human respiratory syncytial virus A, UniProt P03420); assay: RSV fusion assay (luciferase reporter, HEK 293T/17 cells transfected with A2_F); details: Fusion activity IC50 μM, HEK 293T/17 cells, 24 hr
T1 construct: expressed in transfected cells; host or cells: HEK 293T/17
T1 sequence (P03420 137-574): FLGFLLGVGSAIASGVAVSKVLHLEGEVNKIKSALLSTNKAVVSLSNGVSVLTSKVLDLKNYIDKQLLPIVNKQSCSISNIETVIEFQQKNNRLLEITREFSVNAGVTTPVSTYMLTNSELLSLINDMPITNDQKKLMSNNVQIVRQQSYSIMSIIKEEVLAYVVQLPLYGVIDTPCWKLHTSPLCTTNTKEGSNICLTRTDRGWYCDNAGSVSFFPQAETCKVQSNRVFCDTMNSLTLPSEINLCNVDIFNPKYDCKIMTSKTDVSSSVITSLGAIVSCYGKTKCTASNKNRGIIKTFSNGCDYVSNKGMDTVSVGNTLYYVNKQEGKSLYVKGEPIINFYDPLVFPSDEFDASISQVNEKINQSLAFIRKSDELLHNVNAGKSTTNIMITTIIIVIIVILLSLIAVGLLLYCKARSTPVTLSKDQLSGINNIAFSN
T1 sequence (P03420 26-109): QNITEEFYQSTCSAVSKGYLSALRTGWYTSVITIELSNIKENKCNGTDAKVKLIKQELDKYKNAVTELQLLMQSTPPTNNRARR
Method: HEK 293T/17 cells were cultured in T75 culture flasks in Dulbecco's medium (DMEM) containing 10% FBS and 1× Penicillin-Streptomycin (Pen/Strep) and warmed to 37° C. prior to use. The cells were passaged by first washing briefly with 3 ml phosphate buffered saline (PBS) followed by a 4 min incubation with […] at 37° C. 7 ml media was then added to the flask and the cells dispersed via pipetting (×3) against the bottom of the flask. Two further T75 flasks were each seeded with 2×10^6 cells in 15 ml fresh media.
Cells were seeded on the T75 plates at the same density as on the 6-well plates the area of a T75 flask and one 1.75 cm radius well from a 6-well plate were compared. 7.79×2 ml of 3×10^5 cells ml^−1 was used to seed a single T75 flask.
HEK cells were removed from a T75 flask as described above. The cells were counted and diluted to 3×10^5 cells/ml in fresh media. Two T75 flasks were each seeded with 15.58 ml diluted cells.
The plasmid DNA (for pFR-Luc and pcDNA3.1_Gal4/NFκB) to be transfected into the HEK cells was first prepared in serum free media (DMEM+Pen/Strep) containing the transfection reagent Fugene 6 (Promega). Transfections were set up as follows (Luc=pFR_Luc, Gal4=pcDNA3.1+_Gal4/NFκB, A2_F=pcDNA3.1+_A2_F)
Serum free media was placed in a 1.5 ml eppendorf tube then the fugene 6 was added into the media. The tube was vortexed for 1 s before being incubated at RT for 5 min. The plasmid DNA was then added to the tube, vortexed for 1 s, then incubated at RT for 15 min
The transfection reagents were then added to the appropriate T75 flask by tipping the flask on end and adding the reagents directly to the media already in the flask. The flask was then tipped on its back so the media could be mixed thoroughly whilst not disturbing the cells before placing the flask the right way up and incubating overnight at 37° C. and 5% CO2.
Compounds were diluted (in a polypropylene round-bottomed 96 well plate) 1:3 in a twelve point dilution curve to give top [final] of either 3.3 μM, 1 μM, 500 nM 200 nM or 100 nM. The Control compound was always run at a concentration of 100 nM.
The cells were then counted and diluted to 4×10^5 cells/ml in fresh media. 50 μl of transfection population 1 cells were added to all wells of the assay plates. 100 μl diluted compound (2 rows per compound), standard curve (one row) and controls (100 nM RV (100% inhibition, four wells), DMSO (0% inhibition, eight wells)) were added to the appropriate wells. 50 μl of the diluted (4×10^5 cells/ml) transfection population 2 cells when then added to all wells.
The plates were then incubated for 24 hr at 37° C. and 5% CO2
Buffers were prepared for the luciferase assay (20 mM tricine, 10 mM MgSO4, 1 mM EDTA, 10 mM DTT) and lysis (25 mM tris-phosphate, 8 mM MgCl2, 1 mM DTT, 1% Triton X-100, 15% glycerol) and stored at −20° C.
Luminescence was measured as described:
Media was discarded into Virkon and the plates washed with 100 ul PBS per well. 20 ul/well of lysis buffer was added to each well and incubated shaking for 5 min at RT. Luciferin was added to LAAB at a dilution of 1:50 to give a working luciferin buffer. 100 μl working luciferin buffer was added to each well and luminescence was measured immediately. […]

[3] = tested on: RSV A2; assay: Plaque Reduction Assay 1 (Vero cells, immunostaining); details: two replicate values, read-out: RSV Plaque Reduction assays A2 (PRNT1) (n = 2) IC50
Method: Plaque Reduction Assay 1: Vero cells were seeded in 96-well plates in a volume of 100 μL of Optimem supplemented with 3% FCS at a concentration of 4×10^4 cells per well. After an overnight incubation at 37° C. in a humidified 5% CO2 atmosphere, the monolayer of cells should be approximately 90% confluent. Antiviral compounds were titrated in pre-warmed Serum Free (SF) Optimem in a U-bottom 96 well plate. For compounds in a DMSO solution, titration in 100% DMSO was performed first and each concentration added individually to a 2× final concentration at 4% DMSO in SF media before mixing with virus (2% final DMSO with virus). Media was then removed from cells and replaced with PBS (100 μl/well). RSV stock was thawed and diluted in SF Optimem media to 4000 PFU/mLl. An equal volume of virus was added to compounds on the titration plate. PBS was removed from cells which were then inoculated with the virus/compound solution (50 μL/well). Cells were incubated for 2 h in a 37° C.+5% CO2 humidified incubator to allow infection. Inoculum was removed and media (Optimem+1% FCS) added to cells (100 μl/well). Cells were subsequently incubated for 48 h at 37° C.+5% CO2 in a humidified incubator. Immunostaining Procedure: Media was removed from cells and the monolayer washed with PBS. Cells were fixed with ice cold 80% Acetone in PBS (100 μl/well) for 20 mins at −20° C. Fixative was removed and cells are dried for 30 mins with plates inverted. Blocking solution (5% skim milk powder in PBS-T) was added to cells (150 μL/well) and plates were incubated for 30 mins at room temperature. Blocking solution was removed and plates washed once with PBS-T. Primary antibody in blocking solution was added to plates (50 μl/well) and incubated for 1 h at 37° C. Plates were then washed 3 times with PBS-T. Secondary antibody in blocking solution was added to plates ([…]) and incubated for 1 h at 37° C. in the dark. Plates were washed as above and then dried for 10 mins. Plates were scanned on the Odyssey Imager (Li-Cor Biosciences) at a resolution of […], medium quality and level 5 intensity in the […]. Data Analysis: Images obtained were saved and plaque numbers counted with the aid of computer imaging software. EC50 values for compounds were derived from dose response curves [three variable log(inhibitor) vs response] obtained using Graphpad Prism software.

[4] = human respiratory syncytial virus, Vero

CC(C)CNc1nc(N2CCC(N)C2)ncc1CN1C(=O)C2(CC2)c2ccc(F)cc21 (stereo not shown) [Compound 5, 1′-((2-(3-Aminopyrrolidin-1-yl)-4-(isobutylamino)pyrimidin-5-yl)methyl)-6′-fluorospiro[cyclopropane-1,3′-indolin]-2′-one]
IC50 [1]: 998 nM
IC50 [2]: 0.655 µM
IC50 [3, 4]: 165 nM
IC50 [3]: 215 nM

NC1CCN(c2ncc(CN3C(=O)C4(CC4)c4ccc(F)cc43)c(NCCCCO)n2)C1 (stereo not shown) [Compound 4, 1′-((2-(3-Aminopyrrolidin-1-yl)-4-((4-hydroxybutyl)amino)pyrimidin-5-yl)methyl)-6′-fluorospiro[cyclopropane-1,3′-indolin]-2′-one]
IC50 [1]: 43 nM
IC50 [2]: 0.452 µM
IC50 [3, 4]: 5.48 nM
IC50 [3]: 9.3 nM

CC(C)CCNc1nc(N2CCC(N)C2)ncc1CN1C(=O)C2(CC2)c2ccc(F)cc21 (stereo not shown) [Compound 1, 1′-((2-(3-Aminopyrrolidin-1-yl)-4-(isopentylamino)pyrimidin-5-yl)methyl)-6′-fluorospiro[cyclopropane-1,3′-indolin]-2′-one]
IC50 [2]: 0.708 µM
IC50 [3, 4]: 619 nM
IC50 [3]: 316 nM

NC1CCN(c2ncc(CN3C(=O)C4(CC4)c4ccc(F)cc43)c(N3CCS(=O)(=O)CC3)n2)C1 (stereo not shown) [Compound 13, 1′-((2-(3-Aminopyrrolidin-1-yl)-4-(1,1-dioxidothiomorpholino)pyrimidin-5-yl)methyl)-6′-fluorospiro[cyclopropane-1,3′-indolin]-2′-one]
IC50 [1]: 424 nM
IC50 [2]: 5.04 µM

NC1CCN(c2ncc(CN3C(=O)C4(CC4)c4ccc(F)cc43)c(NCCCO)n2)C1 (stereo not shown) [Compound 27, 1′-{[2-(3-Aminopyrrolidin-1-yl)-4-[(3-hydroxypropyl)amino]pyrimidin-5-yl]methyl}-6′-fluoro-1′,2′-dihydrospiro[cyclopropane-1,3′-indole]-2′-one]
IC50 [1]: 34 nM
IC50 [2]: 1.09 µM

NC1CCN(c2ncc(CN3C(=O)C4(CC4)c4ccc(F)cc43)c(NC3CCOCC3)n2)C1 (stereo not shown) [Compound 10, 1′-((2-(3-Aminopyrrolidin-1-yl)-4-((tetrahydro-2H-pyran-4-yl)amino)pyrimidin-5-yl)methyl)-6′-fluorospiro[cyclopropane-1,3′-indolin]-2′-one]
IC50 [1]: 33 nM
IC50 [2]: 0.184 µM

NCCNc1ncc(CN2C(=O)C3(CC3)c3ccc(F)cc32)c(NCCCCO)n1 [Compound 25, 1′-({2-[(2-Aminoethyl)amino]-4-[(4-hydroxybutyl)amino]pyrimidin-5-yl}methyl)-6′-fluoro-1′,2′-dihydrospiro[cyclopropane-1,3′-indole]-2′-one]
IC50 [1]: 49 nM
IC50 [2]: 0.212 µM
